The source of these data is patent US7465815B2, “Cannabinoid receptor modulator” (priority 2003, dated 2008).

In experiment [1] the target is T1, human CB2 receptor (Homo sapiens, UniProt P34972).
T1 construct: expressed in transfected cells; host or cells: CHO cells (membrane fraction)
Nature of the experiment: [3H]-CP55,940 binding inhibition assay, CHO cell membrane fraction expressing human CB2 receptor. The protocol: (§1) [^3H]-CP55,940 binding assay with a cell membrane fraction expressing human CB1 and CB2 receptor
(§2) [^3H]-CP55940 binding inhibition assay was conducted by incubating a CHO cell membrane fraction expressing human CB1 receptor and the test compound and 500 pM [^3H]-CP55940 in reaction buffer (50 mM Tris-HCl (pH7.4), 5 mM MgCl2, 2.5 mM EDTA and 0.5% BSA (fatty acid free)) at room temperature for 60 minutes. The reaction solution was filtered through GF/C filter, washed with 300 μl of washing buffer (50 mM Tris-HCl (pH7.4), 0.05% BSA (fatty acid free)) four times, and the radioactivity of the filter was measured with a Top Count scintillation counter (Packard). As results, the test compound has inhibited binding of [^3H]-CP55940 to the membrane fraction dose-dependently.
(§3) The inhibitory activity of the test compound to [^3H]-CP55940 binding was calculated by percent on the basis that radioactivity is 100% when only 500 pM [^3H]-CP55940 was added, and 0% when 500 pM [^3H]-CP55940 and 100 nM CP55940 were added at the same time. Further, IC50 value of the test compound was calculated by analyzing concentrations and percents of the test compound with PRISM 3.0 (Graphpad Software, Inc.).
The same assay was also conducted for a CHO cell membrane fraction expressing human CB2 receptor, and the inhibitory activity to [^3H]-CP55940 binding was calculated.

Experiment [2] addresses T2, CB1 receptor (Mus musculus, UniProt P47746).
T2 construct: from tissue; host or cells: whole animal, Jcl: ICR male mice
Nature of the experiment: Body temperature-lowering action on mouse (CB1 receptor agonistic activity in vivo). As to conditions: Jcl: ICR male mice, 1 mg/kg i.p., rectal temperature 30 minutes after administration, compared with control group. Here is the method: Body temperature-lowering action on mouse
CB1 receptor agonistic activity of the compound of the present invention in vivo was evaluated by investigating the effect on the body temperature of mouse after the drug was administered to the mouse. In this experiment, Jcl: ICR male mice (5 weeks old) were used. After measuring the rectal temperature with a thermometer (Physitemp BAT-12) that was connected to a probe for measuring body temperature, the compound dissolved in 2.2% EtOH and 5% G2-β-cyclodextrin (solvent) was administered intraperitoneally. Solvent only was administered to the control group. 30 minutes after administration, rectal temperature was measured again. The experiment was conducted for 4 subjects per a group.

For experiment [3], the target named is T3, human CB1 receptor (Homo sapiens, UniProt P21554).
T3 construct: expressed in transfected cells; host or cells: CHO cells (membrane fraction)
Nature of the experiment: [3H]-CP55,940 binding inhibition assay, CHO cell membrane fraction expressing human CB1 receptor. Here is the method: as §1, §2, §3

T3 sequence (P21554 whole entry): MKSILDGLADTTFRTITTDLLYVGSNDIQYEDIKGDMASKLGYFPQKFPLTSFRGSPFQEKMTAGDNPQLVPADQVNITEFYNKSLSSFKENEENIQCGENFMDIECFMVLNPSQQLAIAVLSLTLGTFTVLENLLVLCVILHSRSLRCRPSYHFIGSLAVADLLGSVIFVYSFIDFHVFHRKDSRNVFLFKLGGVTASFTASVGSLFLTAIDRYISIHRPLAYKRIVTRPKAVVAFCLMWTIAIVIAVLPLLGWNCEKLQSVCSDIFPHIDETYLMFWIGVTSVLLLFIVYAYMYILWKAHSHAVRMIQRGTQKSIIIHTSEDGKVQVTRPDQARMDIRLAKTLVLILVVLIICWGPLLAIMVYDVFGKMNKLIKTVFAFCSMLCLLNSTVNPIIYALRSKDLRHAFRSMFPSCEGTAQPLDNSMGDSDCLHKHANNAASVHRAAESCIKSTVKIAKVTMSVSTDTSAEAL
T2 sequence (P47746 whole entry): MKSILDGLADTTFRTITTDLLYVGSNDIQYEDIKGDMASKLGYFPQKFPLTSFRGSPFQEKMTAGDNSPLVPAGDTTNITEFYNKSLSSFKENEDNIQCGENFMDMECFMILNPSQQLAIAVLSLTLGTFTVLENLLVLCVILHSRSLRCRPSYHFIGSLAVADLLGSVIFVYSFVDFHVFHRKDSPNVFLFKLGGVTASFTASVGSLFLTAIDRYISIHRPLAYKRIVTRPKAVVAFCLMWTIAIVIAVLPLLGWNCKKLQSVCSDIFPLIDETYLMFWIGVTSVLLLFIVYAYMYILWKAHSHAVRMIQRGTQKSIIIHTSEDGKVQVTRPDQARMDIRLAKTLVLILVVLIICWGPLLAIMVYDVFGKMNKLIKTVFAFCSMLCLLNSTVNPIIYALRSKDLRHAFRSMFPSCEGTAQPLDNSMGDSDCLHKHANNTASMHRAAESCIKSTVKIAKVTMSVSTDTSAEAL
T1 sequence (P34972 whole entry): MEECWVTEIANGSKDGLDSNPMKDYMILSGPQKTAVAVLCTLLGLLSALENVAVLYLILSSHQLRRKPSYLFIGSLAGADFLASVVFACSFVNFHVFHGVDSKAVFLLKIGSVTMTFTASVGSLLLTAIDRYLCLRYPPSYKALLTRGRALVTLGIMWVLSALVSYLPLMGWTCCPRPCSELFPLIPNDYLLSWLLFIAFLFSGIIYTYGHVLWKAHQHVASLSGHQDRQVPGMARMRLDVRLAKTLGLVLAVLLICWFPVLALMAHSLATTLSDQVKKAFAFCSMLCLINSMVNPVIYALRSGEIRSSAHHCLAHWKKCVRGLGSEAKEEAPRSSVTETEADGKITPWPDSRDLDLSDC

By IC50 is commonly meant the point on the concentration scale where inhibition reaches its midpoint. Read a high IC50 as weaker potency. With `CCCc1c(C)c(NC(=O)CC(C)(C)C)c(C)c2c1OCC2c1ccc(C(C)C)cc1` (stereo not drawn) [Example 34, N-(3-(4-Isopropylphenyl)-4,6-dimethyl-7-propyl-2,3-dihydro-1-benzofuran-5-yl)-3,3-dimethylbutanamide], the IC50 in experiment [1] and in experiment [3] was less than 10 nM in each case. The “Test Results (body temperature-lowering action)” value in experiment [2] was “Effective (estimated as effective if the compound of the present invention lowered the body temperature substantially by 1 °C or more when compared with the control group 30 minutes after administration of 1 mg/kg, i.p.)”.
Turning to `Cc1c(Br)c2c(c(C)c1NC(=O)CC(C)(C)C)C(c1ccc(C(C)C)cc1)CO2` (stereo not drawn) [Example 35, N-(7-Bromo-3-(4-isopropylphenyl)-4,6-dimethyl-2,3-dihydro-1-benzofuran-5-yl)-3,3-dimethylbutanamide], the half-inhibitory concentration (IC50) in experiment [1] and in experiment [3] was less than 10 nM throughout. Further, the “Test Results (body temperature-lowering action)” value in experiment [2] was “Effective (estimated as effective if the compound of the present invention lowered the body temperature substantially by 1 °C or more when compared with the control group 30 minutes after administration of 1 mg/kg, i.p.)”.
As to `COc1c(C)c(NC(=O)CC(C)(C)C)c(C)c2c1OCC2c1ccc(C(C)C)cc1` (stereo not drawn) [Example 36, N-(3-(4-Isopropylphenyl)-7-methoxy-4,6-dimethyl-2,3-dihydro-1-benzofuran-5-yl)-3,3-dimethylbutanamide], the IC50 in experiment [1] and in experiment [3] was less than 10 nM throughout. Also, the “Test Results (body temperature-lowering action)” value in experiment [2] is “Effective (estimated as effective if the compound of the present invention lowered the body temperature substantially by 1 °C or more when compared with the control group 30 minutes after administration of 1 mg/kg, i.p.)”.
